Experimental findings from patent publication US20210047398A1, “ASPROSIN, A FAST-INDUCED GLUCOGENIC PROTEIN HORMONE” (Baylor College of Medicine, priority 2016, published 2021) are described below.

One series has as its system AgRP neurons. Briefly: Whole-cell patch clamp recordings on AgRP neurons. The conditions noted are these: for effect of pre-treating on asprosin-mediated AgRP neuron activation (firing frequency and resting membrane potential): 100 μM NKY80, 50 μM suramin, 20 μM NF449, 50 μM PTX, 1 μM PKI, 100 μM [D-Lys3]-GHRP-6. Format: cell-based, mice. Here is the method: Electrophysiology—Whole-cell patch clamp recordings were performed on identified AgRP neurons or POMC neurons in the brain slices containing the arcuate nucleus of the hypothalamus (ARH). In particular, to identify AgRP neurons, the inventors crossed Rosa26-tdTOMATO allele onto the regular AgRP-Cre mice (Tong et al., 2008) to generate AgRP-Cre/Rosa26-tdTOMATO mice, which express TOMATO selectively in AgRP/NPY neurons. In some studies, the inventors crossed NPY-GFP mice (Pinto et al., 2004) with NPS mice to generate NPY-GFP mice with or without the NPS mutation, and GFP-labelled neurons in the arcuate nucleus were recorded. In order to record POMC neurons, the inventors crossed Rosa26-tdTOMATO allele onto the POMC-CreERT2 mice (Berglund et al., 2013) to generate POMC-CreERT2/Rosa26-tdTOMATO mice, which express TOMATO selectively in mature POMC neurons upon tamoxifen induction (0.2 mg/g, i.p. 6 weeks of age). In some studies, the inventors also crossed the AgRP-DTR allele onto POMC-GFP mice, and these mice received DT or saline injections (described above) to generate mice with or without AgRP neurons ablated.
Six to twelve-week old mice were deeply anesthetized with isoflurane and transcardially perfused with a modified ice-cold sucrose-based cutting solution (pH 7.3) containing 10 mM NaCl, 25 mM NaHCO3, 195 mM Sucrose, 5 mM Glucose, 2.5 mM KCl, 1.25 mM NaH2PO4, 2 mM Na-Pyruvate, 0.5 mM CaCl2, and 7 mM MgCl2, bubbled continuously with 95% O2 and 5% CO2 (Ren et al., 2012). The mice were then decapitated, and the entire brain was removed and immediately submerged in the cutting solution. Slices (250 μm) were cut with a Microm HM 650V vibratome (Thermo Scientific). Three brain slices containing the arcuate nucleus were obtained for each animal (Bregma −2.06 mm to −1.46 mm; Interaural 1.74 mm to 2.34 mm), and recordings were made at levels throughout this brain region. The slices were recovered for 1 h at 34° C. and then maintained at room temperature in artificial cerebrospinal fluid (aCSF, pH 7.3) containing 126 mM NaCl, 2.5 mM KCl, 2.4 mM CaCl2, 1.2 mM NaH2PO4, 1.2 mM MgCl2, 11.1 mM glucose, and 21.4 mM NaHCO3) saturated with 95% O2 and 5% CO2 before recording.
Slices were transferred to a recording chamber and allowed to equilibrate for at least 10 min before recording. The slices were superfused at 34° C. in oxygenated aCSF at a flow rate of 1.8-2 ml/min. GFP or TOMATO-labeled neurons in the ARH were visualized using epifluorescence and IR-DIC imaging on an upright microscope (Eclipse FN-1, Nikon) equipped with a moveable stage (MP-285, Sutter Instrument). Patch pipettes with resistances of 3-5 MΩ were filled with intracellular solution (pH 7.3) containing 128 mM K-Gluconate, 10 mM KCl, 10 mM HEPES, 0.1 mM EGTA, 2 mM MgCl2, 0.05 mM Na-GTP and 0.05 mM Mg-ATP. Recordings were made using a MultiClamp 700B amplifier (Axon Instrument), sampled using Digidata 1440A and analyzed offline with pClamp 10.3 software (Axon Instruments). Series resistance was monitored during the recording, and the values were generally <10 MΩ and were not compensated. The liquid junction potential was +12.5 mV, and was corrected after the experiment. Data were excluded if the series resistance increased dramatically during the experiment or without overshoot for action potential. Currents were amplified, filtered at 1 kHz, and digitized at 20 kHz. Current clamp was engaged to test neural firing frequency and resting membrane potential (RM) at the baseline and puff delivered recombinant Asprosin (500 ms at various concentrations indicated in the figures). For the asprosin antibody pre-incubation experiment, asprosin and anti-asprosin mAB or IgG were gently mixed at a 1:100 ratio, and then kept on ice for one hour before recording. After AgRP or POMC neuron response to asprosin alone was confirmed, the mixture of recombinant asprosin and anti-asprosin mAB or IgG was perfused to treat the AgRP or POMC neurons for 4 minutes. […]

Series [1] concerns mouse primary hepatocytes. Here is the method: Cell Culture. Primary mouse hepatocytes were isolated from 8- to 12-week-old WT mice using standard methodology. […] The cells were treated with 50 nM recombinant asprosin or GFP for 10 minutes for cAMP and PKA assays and for 2 hours for the in vitro glucose production assay. Cells were pretreated with various inhibitors for 1 hour prior to treatment with asprosin, GFP, Glucagon or Epinephrine. cAMP was measured from cell lysates using the cAMP direct immunoassay kit from Cell Biolabs. PKA activity was measured from cell lysates using the PKA kinase activity kit from Enzo Lifesciences, Inc. Media glucose content was measured using the Glucose Colorimetric Assay Kit from Biovision. Results were normalized to protein content.

Series [2] can be described thus: SPECT scans and gamma counting after intravenous I125-asprosin. Format: in vivo, mice. The conditions noted are these: 15 minutes after intravenous injection of 150 μCi. Here is the method: FIGS. 22A-22E: Asprosin traffics to the liver in vivo and binds the hepatocyte surface with high affinity in a saturable and competitive manner. (FIG. 22A) SPECT scans were performed 15 minutes after intravenous injection with 150 μCi I125-asprosin, boiled I125-asprosin, or free I125 in live, anesthetized mice previously injected with bismuth as a hepatic contrast agent. 3 representative images are shown in axial and coronal planes. (FIG. 22B) Liver asprosin accumulation was measured as liver photon intensity from mice in (FIG. 22A). (FIG. 22C) Tissue radioactivity (normalized to tissue weight) was measured using a γ-counter after sacrificing mice from (FIG. 22A), 45 minutes following injection (n=4 mice). (FIG. 22D) Sandwich ELISA was used to measure plasma His tag (recombinant asprosin contains an N-terminal His tag) in WT mice before injection and 15, 30, 60 and 120 minutes after injection with 30 μg recombinant asprosin. The time taken for peak signal to fall to half-maximal level is indicated by the arrow. […] Specific binding (shown in red) was calculated as the difference between the two curves. Data are represented as the mean±SEM.
Recombinant asprosin was labeled with iodine-125 (I^125) and injected intravenously in mice, followed by single-photon emission computerized tomography (SPECT) scans to identify sites of accumulation. […]

A short description of series [3]: Asprosin plasma half-life (biotinylated asprosin sandwich ELISA). It counts as in vivo. The conditions noted are these: mammalian cell expressed asprosin, subcutaneous, mice, FIG. 50B. Here is the method:
Asprosin Plasma Half-life—Asprosin expressed in HEK293 was labeled with biotin using a EZ-Link Sulfo-NHS-Biotin kit (Thermo Scientific), and excess biotin was removed using a Zeba Spin desalting column (Thermo Scientific). Final protein concentration was estimated using a BCA assay (Thermo Scientific). Approximately 30 ug/mouse of labeled asprosin was injected subcutaneously into C57Bl/6 mice. Blood was drawn before injection (baseline), and 30, 60, 120, and 360 minutes after injection, as well as after 24 and 48 hours. Biotinylated asprosin was detected using a custom designed sandwich ELISA. A plate was coated with the anti-asprosin monoclonal antibody (capture antibody), total plasma asprosin was bound, and only biotinylated asprosin was detected using Streptavidin-HRP.
In general terms: ELISA stands for enzyme-linked immunosorbent assay.

Series [4] can be described thus: Food intake, energy expenditure and body composition after asprosin gain-of-function. It counts as in vivo, mice. As to conditions: single subcutaneous dose, C57Bl/6 mice, vs GFP. Here is the method: Mouse food intake and energy expenditure—Food intake and energy expenditure were measured using the CLAMS System (Comprehensive Lab Animal Monitoring System, Columbus Instruments). Animals were acclimatized in the recording chambers for 48-72 hours, and measurements were taken subsequently for 24 hours during the light cycle and dark cycle. Mice received food and water ad libitum, or after an overnight fast where indicated. Oxygen consumption and food intake were recorded.
As previously described (Yan et al., 2016), male mice were anesthetized with inhaled isoflurane and stainless steel cannulas (Plastics One) were inserted into the lateral ventricles (0.34 mm caudal and 1 mm lateral from bregma; depth, 2.3 mm). […] These mice received 10 ng GFP ([…]) twice a day for 3 continuous days, and 10 ng asprosin (in […]) the last day. The BioDAQ food intake monitoring system (Research Diets, Inc) was used to monitor the food intake, and the food intake from the last GFP injection and asprosin were compared.
Mouse body composition—Body composition was analyzed using an ECHO-MRI system (Echo medical systems, Texas) or DEXA scans where indicated. Lean mass, fat mass, and overall body weight were calculated using the manufacturer-provided software.

On to [D-Lys3]-GHRP-6 [reference compound], for which the “effect of pre-treating on asprosin-mediated AgRP neuron activation (firing frequency and resting membrane potential)” value (“effect of pre-treating” for short) in the series with AgRP neurons was “no impact”.
Still for that read-out and setting: under `O=C(Nc1cc(C(=O)Nc2ccc(S(=O)(=O)[O-])cc2S(=O)(=O)[O-])cc(C(=O)Nc2ccc(S(=O)(=O)[O-])cc2S(=O)(=O)[O-])c1)Nc1cc(C(=O)Nc2ccc(S(=O)(=O)[O-])cc2S(=O)(=O)[O-])cc(C(=O)Nc2ccc(S(=O)(=O)[O-])cc2S(=O)(=O)[O-])c1.[Na+].[Na+].[Na+].[Na+].[Na+].[Na+].[Na+].[Na+]` [NF449, reference compound] stands “completely prevented”; under PTX: Gαi inhibitor [reference compound], “no impact”.
Turning to `Cc1ccc(C(=O)Nc2ccc(S(=O)(=O)O)c3cc(S(=O)(=O)O)cc(S(=O)(=O)O)c23)cc1NC(=O)c1cccc(NC(=O)Nc2cccc(C(=O)Nc3cc(C(=O)Nc4ccc(S(=O)(=O)O)c5cc(S(=O)(=O)O)cc(S(=O)(=O)O)c45)ccc3C)c2)c1` [suramin, reference compound], the “effect of pre-treating” value in the series on AgRP neurons is “completely prevented”. In series [1], the “effect on asprosin-mediated hepatocyte PKA activation” value is recorded as “blocked”.
As for “I^125-Asprosin: Recombinant asprosin labeled with iodine-125”, the “site of accumulation (SPECT, liver photon intensity)” value in series [2] is reported as “trafficked primarily to the liver”.
Regarding `Nc1ncc2c(n1)CC(c1ccco1)CC2=O` (stereo not drawn) [NKY80, reference compound], the “effect of pre-treating” value with AgRP neurons is on record as “completely prevented”.

B1: mammalian-generated asprosin: Human asprosin with C-terminal 6x His tag expressed in Expi293 mammalian cells, glycosylated (protein)
chain: STNETDASNIEDQSETEANVSLASWDVEKTAIFAFNISHVSNKVRILELLPALTTLTNHNRYLIESGNEDGFFKINQKEGISYLHFTKKKPVAGTYSLQISSTPLYKKKELNQLEDKYDKDYLSGELGDNLKMKIQVLLHHHHHHH
Consider B1, for which the plasma half-life is approximately 2.42 h in series [3] and “approximately 145 minutes” in series [3] (listed as Mammalian asprosin). Besides, in the series on AgRP neurons (0.01-100 nM, intact slices), the “dose-dependency of AgRP neuron activation (firing frequency, membrane potential)” value is listed as “dose-dependent activation”. Further, in the series with AgRP neurons (firing frequency and membrane potential), the “EC50 for AgRP neuron activation” value is “nanomolar to subnanomolar range”. Besides, the “food intake over the next 24-hr” value in series [4] is “greater food intake”.
